Experimental data published in patent publication US5234949A (Academic Pharmaceuticals, Inc., priority 1992, dated 1993).
Where two headings read alike, the source gives them in different places.

Assays:
dog = details: in vivo; cited from earlier work
Coronary Occlusion (Rat) = experiment: Antiarrhythmic effects following coronary occlusion; assay type: in vivo
[1] = administered intravenously; cited from earlier work

Molecule | blood pressure effect (dog) | cardiac effect (dog) | solution behaviour (0.05 to 0.1M acetate buffer, pH 3.5 to 3.8, about 25 to 50 mg/ml, room temperature, extended period) | solution behaviour (0.2M acetate buffer, same pH range, after cooling) | solution behaviour (pH above 4.0, room temperature) | solution behaviour (phosphate buffer, 0.1M, on cooling) | dose-dependent suppression of arrhythmias vs saline control group (Coronary Occlusion (Rat)) | onset of action; hemodynamic and electrophysiological effect [1]
Tween-80 | causes hypotension | potent cardiac depressant | – | – | – | – | – | –
CCCCc1oc2ccccc2c1C(=O)c1cc(I)c(OCCN(CC)CC)c(I)c1 [Amiodarone, 2-n-butyl-3-(3,5-diiodo-4-β-N-diethylaminoethoxybenzoyl) benzofuran] | – | – | remains in solution | formed a gel after cooling | a gel formed at room temperature | gel formation occurred at all pH's | significantly different than that seen with the saline control group | rapid onset of action causing profound hemodynamic and electrophysiological effect
